Here are results for four compounds from patent US6905861B2, “D-aminoacylases, method for producing the same, and method for producing D-amino acids using the same” (Daicel Chemical Industries, Ltd., priority 1998, dated 2005).

The subject of one assay is Fusarium solani IFO 9974. The assay can be described thus: D-amino acid production from N-acetyl-D-amino acid by washed fungal cells. The conditions noted are these: Fusarium solani IFO 9974 cells; 0.1% substrate, Tris-HCl pH 7.5, 30° C., 24 hours. The class given is cell-based. The method, then: (§1) A platinum loopful of Hypomyces aurantius IFO 6847 strain, Hypomyces broomeanus IFO 9164 strain, Hypomyces rosellus IFO 6911 strain, Hypomyces chrysospermus IFO 6817 strain, Hypomyces sepulcralis IFO 9102 strain, Hypomyces subiculosus IFO 6892 strain, Hypomyces mycophilus ATCC 76474 or IFO 6785 strain, or Fusarium solani IFO 9974 or IFO 9975 strain was inoculated into 25 ml of YM medium (containing 0.3% yeast extract, 0.3% malt extract, 0.5% peptone, and 2.0% glucose, pH 6.0) in a 500-ml shouldered flask. The fungi were shake-cultured at 24° C. for 3 days. After culturing, a 5-ml aliquot of the culture medium was centrifuged in a refrigerated centrifuge to collect the fungal cells. The cells were washed with physiological saline solution (5 ml) and collected by centrifugation again. A reaction solution (containing 0.1% N-acetyl-D-amino acid shown in Table 1 below in Tris-HCl buffer, pH 7.5) was then added to the cells thus collected. The mixture was incubated in a 5-ml test tube with shaking at 30° C. for 24 hours.
(§2) D-Amino acid thus produced was determined by high-performance liquid chromatography (column, CROWNPAK CR (Daicel Chemical); column temperature, 26° C.; cooled in ice for only valine; mobile phase, HClO4 aqueous solution, pH 2.0; flow rate, 1 ml/min; and detection, 200 nm).

Assay [1] relates to Fusarium solani IFO 9975 strain. The description is as above. The class given is cell-based. As to conditions: Fusarium solani IFO 9975 cells; 0.1% substrate, Tris-HCl pH 7.5, 30° C., 24 hours. On the procedure: as §1, §2
Assay [2] deals with Hypomyces aurantius IFO 6847 strain. Described as above. The class given is cell-based. As to conditions: Hypomyces aurantius IFO 6847 cells; 0.1% substrate, Tris-HCl pH 7.5, 30° C., 24 hours. The method, then:
as §1, §2

In assay [3] the test system is Hypomyces broomeanus IFO 9164 strain. The assay is described as above. The class given is cell-based. The conditions noted are these: Hypomyces broomeanus IFO 9164 cells; 0.1% substrate, Tris-HCl pH 7.5, 30° C., 24 hours. On the procedure: as §1, §2
Assay [4] deals with Hypomyces chrysospermus IFO 6817 strain. The assay is described as above. The class given is cell-based. The conditions noted are these: Hypomyces chrysospermus IFO 6817 cells; 0.1% substrate, Tris-HCl pH 7.5, 30° C., 24 hours. The method, then: as §1, §2
Assay [5] has as its system Hypomyces mycophilus ATCC 76474. The description is as above. The class given is cell-based. The conditions noted are these: Hypomyces mycophilus ATCC 76474 cells; 0.1% substrate, Tris-HCl pH 7.5, 30° C., 24 hours. On the procedure:
as §1, §2

The subject of assay [6] is Hypomyces mycophilus IFO 6785 strain. The description is as above. The class given is cell-based. The conditions noted are these: Hypomyces mycophilus IFO 6785 cells; 0.1% substrate, Tris-HCl pH 7.5, 30° C., 24 hours. The method, then:
as §1, §2

Assay [7] relates to Hypomyces rosellus IFO 6911 strain. The description is as above. The class given is cell-based. The conditions noted are these: Hypomyces rosellus IFO 6911 cells; 0.1% substrate, Tris-HCl pH 7.5, 30° C., 24 hours. The method, then: as §1, §2
The subject of assay [8] is Hypomyces sepulcralis IFO 9102 strain. The description is as above. The class given is cell-based. As to conditions: Hypomyces sepulcralis IFO 9102 cells; 0.1% substrate, Tris-HCl pH 7.5, 30° C., 24 hours. On the procedure: as §1, §2
Assay [9] has as its system Hypomyces subiculosus IFO 6892 strain. The description is as above. As to conditions: Hypomyces subiculosus IFO 6892 cells; 0.1% substrate, Tris-HCl pH 7.5, 30° C., 24 hours. The class given is cell-based. On the procedure: as §1, §2
In assay [10] the test system is D-aminoacylase (crude enzyme) of Auricularia auriculajudae IFO 5949. As to the kind of experiment: Crude enzyme activity for each N-Ac-D-amino acid substrate. The class given is biochemical. The conditions noted are these: Auricularia auriculajudae IFO 5949 crude enzyme; 20 mM substrate, 1 mM CoCl2, 50 mM phosphate buffer pH 7.0. On the procedure:
(§3) Auricularia auriculajudae IFO 5949, Pythium aphanidermaatum IFO 7030, and Menisporopsis novaezelandiae IFO 9179 were each inoculated into sterilized media (100 ml each) (Czapek Dox Broth for IFO 5949, YM1 medium for IFO 7030, and POTATO DEXTROSE BROTH for IFO 9179) in 500-ml Erlenmeyer flasks. The fungi were cultured on a rotary shaker at 210 rpm at 24° C. for 7 days and collected by centrifugation using a […] centrifuge with a RPR10-2 rotor at 8,000 rpm (12,500×g) for 20 min. […] Disrupted cells thus obtained were centrifuged using a […] centrifuge with a RPR20-2 rotor at 17,500 rpm (38,000×g) for 30 min at 4° C. to obtain the supernatant as the crude enzyme. […] Figures in the table denote the amount (mM) of D-amino acids produced from the corresponding N-acetyl-D-amino acids. The D-aminoacylase activity was detected in all the strains tested, producing D-amino acid from the corresponding N-acetyl-D-amino acid.

For assay [11], the system named is D-aminoacylase (crude enzyme) of Menisporopsis novaezelandiae IFO 9179. Described as above. The class given is biochemical. The conditions noted are these: Menisporopsis novaezelandiae IFO 9179 crude enzyme; 20 mM substrate, 1 mM CoCl2, 50 mM phosphate buffer pH 7.0. On the procedure: as §3
A further assay concerns D-aminoacylase. As to the kind of experiment: Substrate specificity of purified D-aminoacylase (TNBS method). The class given is biochemical, Hypomyces mycophilus IFO 6785. The conditions noted are these: for percentage of the specific activity compared with that for N-acetyl-D-methionine taken as 100%, D-enantiomer: 20 mM substrate, 50 mM Tris-HCl pH 7.5, 30° C., 20 min; for activity of the enzyme for the substrate (in words): summary of Table 5. The method, then: The enzyme activity was assayed by determining the amount of amino acid produced using the TNBS method and the HPLC method. In the TMBS method, 100 mM Na2B4O7 (0.5 ml) was added to a sample solution containing amino acid (0.5 ml), 20 μl of 110 mM TNBS (trinitrobenzenesulfonic acid) was then added, and the resulting mixture was quickly stirred. After 5 min, 100 mM NaH2PO4 containing 1.5 mM Na2SO3 (2 ml) was added to the reaction mixture to terminate the color reaction, and the absorbance at 420 nm was measured. HPLC was performed by subjecting a sample solution containing amino acid to high-performance liquid chromatography using an ODS column (column, Wakosil II 5C18 (4.6 dia.×250 mm) (Wako Pure Chemical); eluent, CH3CN/50 mM KH2PO4. H3PO4 (pH 2.5)=2:8; detection, A280 nm; and flow rate, 1.0 ml/min). The retention times were 3.5 min for D-tryptophan and 9.8 min for N-acetyl-D-tryptophan. Using D-tryptophan as the assay standard, one unit (or U) of the enzyme was defined as the amount of the enzyme required to produce 1 μmol of D-tryptophan at 30° C. for 1 min.
Substrate specificity of the enzyme was expressed as the percentage of the specific activity compared with that for N-acetyl-D-methionine taken as 100%. N-chloroacetyl-D-phenylalanine, N-acetyl-D-valine, N-acetyl-D-phenylalanine, N-acetyl-D-tryptophan, N-acetyl-D-leucine, N-acetyl-L-valine, N-acetyl-L-phenylalanine, N-acetyl-L-tryptophan, and N-acetyl-L-leucine substrates were used for the comparison. The enzyme reaction was performed in 50 mM Tris-HCl (pH 7.5) containing 1 µl of the enzyme solution and 20 mM of each substrate (total volume 1.0 ml) at 30° C. for 20 min, and terminated by adding 0.5 ml of a TCA reaction terminating solution according to Tsai et al. (consisting of 110 mM trichloroacetic acid, 220 mM sodium acetate, and 330 mM acetic acid). The enzyme activity was assayed by the TNBS method as described in Example 4(2).

As to `CC(=O)N[C@H](Cc1c[nH]c2ccccc12)C(=O)O` [N-acetyl-D-tryptophan], the “D-amino acid produced from N-acetyl-D-amino acid” value (shortened to “D-amino acid produced”) in the assay with Fusarium solani IFO 9974 is 0 mg/mL; in assay [1], 0.001 mg/mL; in [2], 0.008 mg/mL; in assay [3], 0.002 mg/mL; in assay [4], 0.001 mg/mL; in [5], 0.27 mg/mL. The “D-amino acid produced” value in [6] is 0.40 mg/mL; in assay [7], 0.08 mg/mL; in [8], 0.01 mg/mL; in assay [9], 0.002 mg/mL. Further, the figures for the “amount of D-amino acids produced from the corresponding N-acetyl-D-amino acids” value (“amount of D-amino acids produced” for short) in assay [10] and in [11] were 2.44 mM and 1.30 mM, respectively. In the assay on D-aminoacylase, the “percentage of the specific activity compared with that for N-acetyl-D-methionine taken as 100%, D-enantiomer” value (from here on “percentage … as 100%, D-enantiomer”) was 109%. The “activity of the enzyme for the substrate (in words)” value (“activity of the enzyme” below) in the assay with D-aminoacylase is “very active”.
For the compound `CC(=O)N[C@H](Cc1ccccc1)C(=O)O` [N-acetyl-D-phenylalanine], the “D-amino acid produced” value in the assay on Fusarium solani IFO 9974 amounted to 0.001 mg/mL; in [1], 0.002 mg/mL; in assay [2], 0.005 mg/mL; in [3], 0.004 mg/mL; in [4], 0.003 mg/mL; in [5], 0.003 mg/mL. Besides, the “D-amino acid produced” value in [6] amounted to 0.65 mg/mL; in [7], 0.06 mg/mL; in assay [8], 0.15 mg/mL; in assay [9], 0.05 mg/mL. In addition, the figures for the “amount of D-amino acids produced” value in assay [10] and in assay [11] were 4.34 mM and 0.44 mM, respectively. Also, the “percentage … as 100%, D-enantiomer” value in the assay on D-aminoacylase was 298%. In addition, the “activity of the enzyme” value with D-aminoacylase is “especially active”.
Turning to `CC(=O)N[C@H](CC(C)C)C(=O)O` [N-acetyl-D-leucine], the “D-amino acid produced” value stood at 0.14 mg/mL with Fusarium solani IFO 9974; 0.21 mg/mL in assay [1]; 0 mg/mL in assay [2]; 0 mg/mL in [3]; 1.05 mg/mL in assay [4]; 0.11 mg/mL in [5]. In addition, the “D-amino acid produced” value in assay [6] was 0.55 mg/mL; in [7], 0.3 mg/mL; in assay [8], 1.60 mg/mL; in assay [9], 0.10 mg/mL. Further, in assay [10], the “amount of D-amino acids produced” value turned out to be 2.68 mM. Besides, the “percentage … as 100%, D-enantiomer” value in the assay with D-aminoacylase worked out at 77.5%. In addition, the “activity of the enzyme” value with D-aminoacylase is reported as “very active”.
Consider `CC(=O)N[C@@H](C(=O)O)C(C)C` [N-acetyl-D-valine], for which the “D-amino acid produced” value in the assay on Fusarium solani IFO 9974 was 0 mg/mL; in assay [1], 0.22 mg/mL; in assay [2], 0.14 mg/mL; in [3], 0.18 mg/mL; in assay [4], 3.16 mg/mL; in assay [5] it was 0.11 mg/mL. For the same compound, the “D-amino acid produced” value is 0.98 mg/mL in [6], 2.73 mg/mL in [7], 3.19 mg/mL in assay [8] and 0.23 mg/mL in assay [9]. For the same compound, the entries for the “amount of D-amino acids produced” value in [10] and in [11] were 3.33 mM and 0.16 mM, respectively. Moreover, the “percentage … as 100%, D-enantiomer” value in the assay on D-aminoacylase is reported as 17.5%. The “activity of the enzyme” value in the assay with D-aminoacylase was “somewhat active”.
